Assays:
[1] = Example 2: daily doses of vanoxerine for 11 consecutive days, PK and hemodynamics; assay type: in vivo, human
[2] = Example 3: daily vanoxerine for 14 days in healthy patients; assay type: in vivo, human
Experimental: A standardized meal was served 15 minutes prior to each dosing.

[3] = Example 4: daily vanoxerine for 7 days; assay type: in vivo, human
[4] = system: atrial fibrillation/atrial flutter; assay: Example 6: placebo-controlled study of conversion of recent onset symptomatic AF/AFL to sinus rhythm; assay type: in vivo, human
Experimental: The vanoxerine or identical appearing placebo was randomly assigned and administered in a double-blinded fashion.
Definition of “pure” atrial flutter: only Atrial Flutter (no AF) seen at −30, −15, and 0 time points. Conversion at any time within 24 hours.

[5] = Pharmacokinetic parameters from tests in dogs; assay type: in vivo, dog
Excerpt: Vanoxerine is primarily eliminated from the body in urine, bile, and feces. Indeed, a substantial amount of the drug is expelled, unabsorbed into the feces. […] However, the long half-life of the drug may actually be utilized to minimize the continuous or regular dosing of the drug.

[6] = healthy subjects; cited from earlier work

SMILES: Fc1ccc(C(OCCN2CCN(CCCc3ccccc3)CC2)c2ccc(F)cc2)cc1 [Vanoxerine, 1-[2-[bis(4-fluorophenyl)methoxy]ethyl]-4-(3-phenylpropyl)piperazine]
- steady state reached ([1]; 50, 75 and 100 mg daily doses): ≤ 8 days
- plasma levels at 24 hours ([1]; 50, 75 and 100 mg doses): detectable
- adverse events ([2]; 25, 75, 125 mg daily for 14 days, healthy patients, after standardized meal): No significant adverse events
- all patients achieved steady state after ([2]; repetitive dosing, all patients): 7 to 10 days
- systolic blood pressure and heart rate ([3]; 100 mg daily for 7 days): increases
- systolic blood pressure and heart rate ([3]; 150 mg daily for 7 days): increases
- Steady-state levels achieved ([3]; 50, 100, 150 mg daily for 7 days, all patients): within one week
- Adverse events: number of AEs reported ([4]; 200 mg (22)): reporting 8 AEs
- Adverse events: number of SAEs ([4]; 200 mg (22)): (1 SAE)
- Adverse events: subjects reporting AEs, N (%) ([4]; 200 mg (22)): 4 (18%) subjects
- Adverse events: number of AEs reported ([4]; 300 mg (25)): reporting 12 AEs
- Adverse events: subjects reporting AEs, N (%) ([4]; 300 mg (25)): 7 (28%) subjects
- Adverse events: number of AEs reported ([4]; 400 mg (25)): reporting 23 AEs
- Adverse events: number of SAEs ([4]; 400 mg (25)): AEs (1 SAE)
- Adverse events: subjects reporting AEs, N (%) ([4]; 400 mg (25)): 10 (40%) subjects
- tolerability ([4]; all doses (200, 300, 400 mg)): well tolerated at all doses
- conversion to sinus rhythm of recent onset symptomatic AF/AFL, dose dependence ([4]; doses of 200, 300 and 400 mg): highly statistically significant dose dependent increase
- relation of the two serious adverse events to study drug ([4]; one at 200 mg (upper respiratory infection), one at 400 mg (lower extremity edema secondary to amlodipine)): neither related to the study drug
- elimination from the plasma T112 [5]: 22 h
- effects at higher doses (concentration difficulties, increase systolic blood pressure, asthenia, feeling of drug influence) [6]: some effects were seen
